How the values were obtained:
Assay type in all cases: in vivo
[1] = test system: green foxtail (Setaria viridis, SETVI); test: Pre-emerge test, greenhouse herbicide activity screening; conditions: pre-emerge, rated 14 days after application, 0 = no damage, 100 = complete death
Method in brief: (§1)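 Rating: 0–100 visual injury, 14 DAA. Application: acetone, 187 l/ha, 15–1000 g ai/ha, flat-fan track sprayer with nozzle 40–45 cm above soil or canopy. Post-emerge runs used 0.25% v/v surfactant on 2–3 leaf plants.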

[2] = test system: johnsongrass (Sorghum halepense, SORHA); test: as above; conditions: pre-emerge, rated 14 days after application, 0 = no damage, 100 = complete death
Method in brief: as §1

[3] = test system: large crabgrass (Digitaria sanguinalis, DIGSA); test: as above; conditions: pre-emerge, rated 14 days after application, 0 = no damage, 100 = complete death
Method in brief: as §1

[4] = test system: sicklepod (Cassia obtusifolia, CASOB); test: as above; conditions: pre-emerge, rated 14 days after application, 0 = no damage, 100 = complete death
Method in brief: as §1

[5] = test system: velvetleaf (Abutilon theophrasti, ABUTH); test: as above; conditions: pre-emerge, rated 14 days after application, 0 = no damage, 100 = complete death
Method in brief: as §1

[6] = test system: barnyardgrass (Echinochloa crus-galli, ECHCG); test: Post-emerge test, greenhouse herbicide activity screening; conditions: Echinochloa crus-galli, post-emergence, 336 h, phytotoxicity rating 0-100 (0 no damage, 100 complete death), 14 days after application, read-out: Post-emerge Herbicidal Activity ECHCG; for pest or weed control at 63 g/ha: 63 g ai/ha; for pest or weed control at 250 g/ha: 250 g ai/ha
Method in brief: (§2)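 Applied at 15–1000 g ai/ha from acetone in 187 l/ha spray volume. Post-emergence applications included 0.25% v/v non-ionic surfactant and reached plants sown 8–21 days before. Pre-emergence applications were incorporated by surface watering. Efficacy or crop damage was rated on a 0–100 scale after 14 days.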

[7] = test system: green foxtail (Setaria viridis, SETVI); test: as above; conditions: Setaria viridis, post-emergence, 336 h, phytotoxicity rating 0-100 (0 no damage, 100 complete death), 14 days after application, read-out: Post-emerge Herbicidal Activity SETVI; for pest or weed control at 63 g/ha: 63 g ai/ha; for pest or weed control at 250 g/ha: 250 g ai/ha
Method in brief: as §2

[8] = test system: ivyleaf morningglory (Ipomoea hederacea, IPOHE); test: as above; conditions: Ipomoea, post-emergence, 336 h, phytotoxicity rating 0-100 (0 no damage, 100 complete death), 14 days after application, read-out: Post-emerge Herbicidal Activity IPOHE; for pest or weed control at 63 g/ha: 63 g ai/ha; for pest or weed control at 250 g/ha: 250 g ai/ha
Method in brief: as §2

[9] = test system: johnsongrass (Sorghum halepense, SORHA); test: as above; conditions: Sorghum halepense, post-emergence, 336 h, phytotoxicity rating 0-100 (0 no damage, 100 complete death), 14 days after application, read-out: Post-emerge Herbicidal Activity SORHA; for pest or weed control at 63 g/ha: 63 g ai/ha; for pest or weed control at 250 g/ha: 250 g ai/ha
Method in brief: as §2

[10] = test system: lambsquarters (Chenopodium album, CHEAL); test: as above; conditions: Chenopodium album, post-emergence, 336 h, phytotoxicity rating 0-100 (0 no damage, 100 complete death), 14 days after application, read-out: Post-emerge Herbicidal Activity CHEAL; for pest or weed control at 63 g/ha: 63 g ai/ha; for pest or weed control at 250 g/ha: 250 g ai/ha
Method in brief: as §2

[11] = test system: large crabgrass (Digitaria sanguinalis, DIGSA); test: as above; conditions: Digitaria sanguinalis, post-emergence, 336 h, phytotoxicity rating 0-100 (0 no damage, 100 complete death), 14 days after application, read-out: Post-emerge Herbicidal Activity DIGSA; for pest or weed control at 63 g/ha: 63 g ai/ha; for pest or weed control at 250 g/ha: 250 g ai/ha
Method in brief: as §2

[12] = test system: redroot pigweed (Amaranthus retroflexus, AMARE); test: as above; conditions: Amaranthus retroflexus, post-emergence, 336 h, phytotoxicity rating 0-100 (0 no damage, 100 complete death), 14 days after application, read-out: Post-emerge Herbicidal Activity AMARE; for pest or weed control at 63 g/ha: 63 g ai/ha; for pest or weed control at 250 g/ha: 250 g ai/ha
Method in brief: as §2

[13] = test system: sicklepod (Cassia obtusifolia, CASOB); test: as above; conditions: Senna obtusifolia, post-emergence, 336 h, phytotoxicity rating 0-100 (0 no damage, 100 complete death), 14 days after application, read-out: Post-emerge Herbicidal Activity CASOB; for pest or weed control at 63 g/ha: 63 g ai/ha; for pest or weed control at 250 g/ha: 250 g ai/ha
Method in brief: as §2

[14] = test system: velvetleaf (Abutilon theophrasti, ABUTH); test: as above; conditions: Abutilon theophrasti, post-emergence, 336 h, phytotoxicity rating 0-100 (0 no damage, 100 complete death), 14 days after application, read-out: Post-emerge Herbicidal Activity ABUTH; for pest or weed control at 63 g/ha: 63 g ai/ha; for pest or weed control at 250 g/ha: 250 g ai/ha
Method in brief: as §2

| Structure (SMILES) | Pre-emerge Herbicidal Activity SETVI (phytotoxicity rating, scale 0-100) ([1]; 63 g ai/ha) | Pre-emerge Herbicidal Activity SETVI (phytotoxicity rating, scale 0-100) ([1]; 250 g ai/ha) | Pre-emerge Herbicidal Activity SORHA (phytotoxicity rating, scale 0-100) ([2]; 63 g ai/ha) | Pre-emerge Herbicidal Activity SORHA (phytotoxicity rating, scale 0-100) ([2]; 250 g ai/ha) | Pre-emerge Herbicidal Activity DIGSA (phytotoxicity rating, scale 0-100) ([3]; 63 g ai/ha) | Pre-emerge Herbicidal Activity DIGSA (phytotoxicity rating, scale 0-100) ([3]; 250 g ai/ha) | Pre-emerge Herbicidal Activity CASOB (phytotoxicity rating, scale 0-100) ([4]; 63 g ai/ha) | Pre-emerge Herbicidal Activity CASOB (phytotoxicity rating, scale 0-100) ([4]; 250 g ai/ha) | Pre-emerge Herbicidal Activity ABUTH (phytotoxicity rating, scale 0-100) ([5]; 63 g ai/ha) | Pre-emerge Herbicidal Activity ABUTH (phytotoxicity rating, scale 0-100) ([5]; 250 g ai/ha) | pest or weed control at 63 g/ha [6] [%] | pest or weed control at 250 g/ha [6] [%] | pest or weed control at 63 g/ha [7] [%] | pest or weed control at 250 g/ha [7] [%] | pest or weed control at 63 g/ha [8] [%] | pest or weed control at 250 g/ha [8] [%] | pest or weed control at 63 g/ha [9] [%] | pest or weed control at 250 g/ha [9] [%] | pest or weed control at 63 g/ha [10] [%] | pest or weed control at 250 g/ha [10] [%] | also measured |
| --- | --- | --- | --- | --- | --- | --- | --- | --- | --- | --- | --- | --- | --- | --- | --- | --- | --- | --- | --- | --- | --- |
| COc1c(Cl)cc(F)c(-n2c(=O)cc(C(F)(F)F)n(C)c2=O)c1[N+](=O)[O-] [Compound 1-5, 3-(4-chloro-6-fluoro-3-methoxy-2-nitrophenyl)-1-methyl-6-trifluoromethyl-2,4(1H, 3H)-pyrimidinedione] | 0 | 90 | 0 | 20 | 0 | 70 | 0 | 0 | 30 | 100 | 0 | 0 | 0 | 0 | 0 | 70 | 0 | 0 | 0 | 50 | pest or weed control at 63 g/ha [11]: 0%; pest or weed control at 250 g/ha [11]: 0%; pest or weed control at 63 g/ha [12]: 0%; pest or weed control at 250 g/ha [12]: 40%; pest or weed control at 63 g/ha [13]: 0%; pest or weed control at 250 g/ha [13]: 30%; pest or weed control at 63 g/ha [14]: 10%; pest or weed control at 250 g/ha [14]: 60% |
| Cn1c(C(F)(F)F)cc(=O)n(-c2c(F)cc(Cl)c(O)c2N)c1=O [Compound 1-16, 3-(2-amino-4-chloro-6-fluoro-3-hydroxyphenyl)-1-methyl-6-trifluoromethyl-2,4(1H, 3H)-pyrimidinedione] | 0 | 0 | 0 | 0 | 0 | 0 | 0 | 0 | 0 | 0 | 0 | 0 | 0 | 0 | 20 | 50 | 0 | 0 | 30 | 60 | pest or weed control at 63 g/ha [11]: 0%; pest or weed control at 250 g/ha [11]: 0%; pest or weed control at 63 g/ha [12]: 30%; pest or weed control at 250 g/ha [12]: 70%; pest or weed control at 63 g/ha [13]: 0%; pest or weed control at 250 g/ha [13]: 0%; pest or weed control at 63 g/ha [14]: 30%; pest or weed control at 250 g/ha [14]: 50% |
